Test results: US20240181000A1, “LGG-DERIVED PEPTIDES AND METHODS OF USE THEREOF” (Ohio State Innovation Foundation, priority 2021, published 2024)
No end group written: not given here.

Tests used:
[1] = test system: multiple APEC serotypes; format: cell-based, E. coli
Method: Anti-APEC spectrum determination: Peptides (P1, P2, and P3) were tested against multiple APEC serotypes/strains to determine their spectrum of activity. Peptides were added at their MICs and the growth inhibitory activity of the peptides was determined as described above.

[2] = test system: APEC O78; test: Efficacy in wax moth larvae model; format: in vivo, Galleria mellonella
Method: Efficacy and toxicity of peptides in wax moth (Galleria mellonella) larvae model: To measure the efficacy and toxicity of peptides (P1, P2, and P3) in vivo, wax moth larvae model was used as described previously. Wax moth larvae were obtained from Vanderhorst Wholesale, Inc. (Saint Marys, OH) and were kept at 37° C. overnight before use. Healthy larvae (creamy color with no blackening) were selected and kept in sterile petri dishes before inoculation. For toxicity evaluation, larvae (n=10/group) were injected with 25.5 mM of peptides (dissolved in sterile water containing DMSO) through last left pro-leg using PB600-1 repeating dispenser (Hamilton) attached to insulin syringe (ReliOn; 31 gauze, 8 mm needle length). The injected larvae were incubated for 72 h at 37° C., and mortality was recorded every 12 h.
For efficacy evaluation, larvae (n=15/group) were pretreated (as above) and infected with rifampicin resistant (Rif) APEC O78 (2.3×10^4 CFU/larva) through last right pro-leg within 30 mins of treatment. The larvae were incubated at 37° C. for 72 h and mortality was recorded as above. […] The statistical significance (P<0.05) of treatments on survival of larvae and APEC load inside larvae was calculated using log-rank test and one-way ANOVA followed by Tukey's post-hoc test, respectively.

[3] = test system: commensal and probiotic bacteria; test: Effect against beneficial microbes; format: cell-based; conditions: at MICs
Method: Effect against beneficial microbes: Peptides (P1, P2, and P3) were tested against different commensal and probiotic bacteria to determine their specificity of activity as described previously. Peptides were added at their MICs to 100 μL of known concentration of bacterial cultures and cultures were incubated under required conditions. Following incubation, OD600 of cultures was measured to determine the effect of peptides on bacterial growth.

[4] = test system: ST membrane; test: Transmission electron microscopy; format: cell-based, Salmonella enterica; conditions: 10×MIC, 3 h
Method: ST was treated with 10× peptide MIC and incubated for 3 h.
Transmission electron microscopy: To further visually analyze the inhibitory effects of P1 and P2 on ST, transmission electron microscopy (TEM) was performed as described previously. […] After which, cells were fixed overnight with 3% glutaraldehyde and 2% paraformaldehyde at room temperature. Cells were then washed and postfixed with 1% osmium tetroxide (OsO4). The washed cells were then dehydrated, with graded ethanol, and embedded with Embed 812 kit (Electron Microscopy Sciences, Pa). Ultrathin (70 nm) sections were prepared on formvar-carbon coated grids and stained with uranyl acetate and lead citrate. Untreated ST was used as a control. TEM was conducted at MCIC using the Hitachi H-7500 microscope.

[5] = test system: MlaA; test: Immunoblot analysis; format: cell-based, E. coli; conditions: densitometry
Method: (§1) Immunoblot analysis: To corroborate the findings of gene expression study, level of OmpC and MlaA proteins upon peptides (P1, P2, and P3) treatment was investigated as described previously. Peptides treated culture of APEC O78 was prepared as above and DMSO treated culture was used as control. Post-treatment, the fractions of cytoplasmic and membrane proteins was prepared using ultracentrifugation as previously described. The concentrations of fractionated membrane proteins were then normalized based on 280 nm and separated on a 12% SDS-PAGE. For immunoblot analysis, membrane proteins (25 μg) resolved on SDS-PAGE above were electrotransferred onto an Immuno-Blot® PVDF Membrane (Bio-Rad) and probed for OmpC and MlaA using anti-OmpC (1:2,000) (ThermoFisher Scientific) and anti-MlaA (1:15,000; Dr. Thomas J. Silhavy) polyclonal antibodies and goat anti-rabbit IgG HRP-conjugated secondary antibody (Sigma-Aldrich). The membrane was developed with Clarity Western ECL Substrate (Bio-Rad) and visualized in a FluorChem Q (proteinsimple) imager. The density of OmpC and MlaA proteins was quantified using ImageJ software.

[6] = test system: OmpC; test: Immunoblot analysis; format: cell-based, E. coli; conditions: densitometry
Method: as §1

[7] = test system: APEC O78 membrane; test: Transmission electron microscopy; format: cell-based, E. coli; conditions: 10×MIC, 3 h
Method: Transmission electron microscopy: To visualize the effect of peptides (P1, P2, and P3) on APEC membrane, transmission electron microscopy (TEM) was performed as described previously. The peptide treatment was performed as described above. […] After incubation, cells were fixed overnight at room temperature with 3% glutaraldehyde & 2% paraformaldehyde), washed, and postfixed with 1% osmium tetroxide (OsO4). The cells were then dehydrated with graded ethanol series and embedding was performed using Embed 812 Kit (Electron Microscopy Sciences, PA). Ultrathin (70 nm) sections were prepared on formvar-carbon coated grids and stained with uranyl acetate and lead citrate. Microscopy was performed using Hitachi H-7500 microscope at MCIC. Untreated bacterial culture was used as control.

[8] = test system: ST; test: Alanine scanning SAR, anti-Salmonella activity; format: cell-based, Salmonella enterica
Method: Relative Importance was calculated using formula: (percent growth in analogue-percent growth in original peptide)/(percent growth in DMSO-treated control-percent growth in original peptide)×100.
Structural-activity relationship (SAR) study: Structure activity relationship analysis was used to better determine the important amino acids required for Anti-Salmonella activity of P1 and P2. Alanine scanning libraries of P1 and P2 were synthesized from Genscript (Table 28; (www.genscript.com/alanine_scanning.html) and tested for inhibitory activity as described above. Relative importance [(percent growth in analogue-percent growth in original peptide)/(percent growth in DMSO-treated control-percent growth in original peptide)×100] was used to identify crucial amino acids of each amino acid residue of the peptide. Two independent experiments were conducted to ensure accuracy.

Substance: PDENK [Peptide P2, PDENK]
- Growth inhibition against APEC serotypes [1]: 95.0-100%
- APEC load in the larvae ([2]; 72 h post-infection, untreated 7.4±3.1 log CFU/larva): no APEC was isolated
- Larval mortality ([2]; pretreated with 25.5 mM, 72 h, untreated 73.34%): 26.67%
- Growth of Gram-negative beneficial bacteria, particularly E. coli [3]: inhibited
- Growth of Gram-positive beneficial bacteria [3]: no effect
- ST membrane in TEM [4]: disruption of the membrane characterized by sloughed or flaccid appearance
- MlaA level decreased vs untreated APEC [5]: 1.40 folds
- OmpC level lower than in untreated APEC [6]: 9.27 folds
- APEC membrane in TEM [7]: membrane either sloughed (or shed), ruptured, or flaccid
- Relative importance of Asparagine in P2 [8]: 35%
- Relative importance of Aspartate in P2 [8]: 82%
- Relative importance of Proline in P2 [8]: zero relative importance
- Relative importance of glutamic acid in P2 [8]: 77%
- Relative importance of lysine in P2 [8]: 32%
